{
  "source": "patent US11104672B2",
  "about": "“Polymorphs” (Syngenta Participations AG, priority 2017, dated 2021)",
  "assay": "Stability of polymorphs: stirring in dimethyl carbonate, crystals characterised by DSC and pXRD",
  "assay_type": "physicochemical",
  "conditions": "stirred in 5 ml dimethyl carbonate for two days, crystals isolated, air dried",
  "method": "Powder X-ray diffraction analysis of solid material was carried out using the Bruker D8 powder diffractometer at room temperature and at relative humidities above 40%. Samples were mounted in Perspex sample holders and the samples flattened. The sample holder was rotated and X-rays were collected from 4° to 34° 2-theta, with a scan time of 25 to 30 minutes depending on the pattern intensity.\nDSC was carried out using a Mettler Toledo DSC1. A sample loading of around 5 mg was used and this was heated from 25° C. to 160° C. at a rate of 10° C./minute. The lid of the DSC crucible was pierced to allow the escape of any gas formed during the heating of the sample.\nA sample of the polymorph designated Form A(c) was stirred in 5 ml dimethyl carbonate for two days. The crystals were isolated, air dried and characterised by DSC and pXRD.",
  "data": [
    {"smiles": "CCN1OC[C@@H](NC(=O)c2ccc(C3=NO[C@@](c4cc(Cl)c(F)c(Cl)c4)(C(F)(F)F)C3)cc2C)C1=O", "note": "[Form A(c)]", "values": [
      {"measurement": "Polymorphic stability (solid form found after stirring)", "value": "all of the Form A(c) had converted into Form (A)a"}
    ]}
  ]
}
